Reference: publication PMC10353390, “Biological and Structural Analyses of New Potent Allosteric Inhibitors of HIV-1 Integrase” (Antimicrobial Agents and Chemotherapy, 2023)
Like-named read-outs stand apart in the source and are kept apart here.

Assays:
[1] = test system: lab-adapted and clinical HIV-1 isolates; assay: Infection assays in primary T CD4+ lymphocytes; assay type: cell-based; conditions: Human immunodeficiency virus 1, Lymphocyte
[2] = test system: HIV-1 strains resistant to INSTIs, NRTIs, NNRTIs or PIs; assay type: cell-based
Outline: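 Cell viability (CellTiter-Glo luminescence) served as read-out in MT4 cells at 10^6/mL, infected 2 h at MOI 0.001 in presence of graded compound concentrations. Viruses: resistance-mutation recombinants in NL4-3 backbone plus resistant clinical isolates.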

[3] = test system: recombinant NL4-3 viruses with polymorphisms at IN positions 124 and 125; assay: Multiple-round infection of MT4 cells with recombinant NL4-3 viruses polymorphic at IN positions 124 and 125; assay type: cell-based, HIV-1
Description: Located on the HIV-1 IN CCD dimerization interface, the principal INLAI binding pocket overlaps with a hot spot of amino acid sequence polymorphism involving IN residues 124 and 125 ([16]). To test if the new INLAIs maintained antiviral activity against major polymorphisms, we introduced all major combinations of residues found in circulating HIV-1 strains at positions 124 and 125 into NL4-3 HIV-1 molecular clone. In total, we evaluated 15 such combinations that collectively covered 98% of all HIV-1 clade polymorphisms involving these positions ([48]). To gauge effects on the antiviral activity, we calculated the EC50 fold change (FC) relative to wild type NL4-3 HIV-1 strain that features Thr124 and Thr125 (TT; specific polymorphisms are referred to by a single letter amino acid code).
(§1) MT4 cells growing exponentially at the density of 10^6/mL were infected with HIV-1 strain NL4-3 at a multiplicity of infection (MOI) of 0.001 for 2 h in the presence of different concentrations of compounds, and the CellTiter-Glo luminescent reagent (Promega) was used to quantify cell viability as described previously ([12]).

[4] = test system: NL4-3 HIV-1 with INLAI-selected IN single point mutations; assay type: cell-based
[5] = biological target: HIV-1 IN-LEDGF/p75 interaction (Human immunodeficiency virus type 1 group M subtype B, UniProt P12497); assay: biochemical
[6] = Cytotoxicity assay in MT4 cells; assay type: cell-based; conditions: human, MT4 cells (proliferating human T-cell line), CellTiter-Glo
Description: Growth inhibition was monitored in a proliferating human T-cell line (MT4) with different concentrations of compounds, using the CellTiter-Glo luminescent reagent (Promega), as previously described ([12]).

[7] = test system: NL4-3 HIV-1 strain; assay: Multiple-round infection assay in MT4 cells, NL4-3; assay type: cell-based; conditions: MT4 cells
[8] = test system: VSV-G-pseudotyped NL4-3Δenv-luc; assay: microbe, parasite or virus in culture; assay type: cell-based, HIV-1; conditions: Human immunodeficiency virus 1, NL43, MT4, read-out: EC50 in single-round infection
[9] = test system: primary HIV-1 isolates with polymorphisms at IN positions 124 and 125; assay: Multiple-round infection of MT4 cells with primary HIV-1 isolates polymorphic at IN positions 124 and 125; assay type: cell-based; conditions: primary isolate
Description: Next, we evaluated the potency of the BDM-2 series of INLAIs against several primary HIV-1 isolates with polymorphisms at IN positions 124 and 125.
as §1

[10] = biological target: CCD of HIV-1 IN and IBD of LEDGF/p75 (Human immunodeficiency virus type 1 group M subtype B, UniProt P12497); assay: biochemical
[11] = test system: HXB2 HIV-1 strain; assay: Multiple-round infection assay in MT4 cells, HXB2; assay type: cell-based; conditions: Human immunodeficiency virus 1, HXB2; multiple-round infection, MT4 cells; mean ± SD, n > 5; read-out: EC50 HXB2
Outline: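 Antiviral read-out was CellTiter-Glo luminescent viability of exponentially growing MT4 cells (10^6/mL). Cells were exposed to HIV-1 for 2 h at an MOI of 0.001 while compound was present at varying concentrations.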

[12] = biological target: T1, HIV-1 IN (Human immunodeficiency virus type 1 group M subtype B, UniProt P12497); assay: HTRF IN multimerization assay; assay type: biochemical; conditions: mean ± SD
T1 construct: made in house
Description: A key property of INLAIs is the ability to promote HIV-1 IN homo-multimerization ([39][–][42]). […] The maximal signal (plateau) in our IN aggregation assay corresponds to the highest HTRF signal increase under saturating INLAI concentration, relative to baseline level. Thus, MUT916, MUT884, MUT871, and MUT872 increased HIV-1 IN aggregation 3.7 to 4.4-fold, while BDM-2, BI-224436, and S-I-82 did so 5 to 6-fold (Table 1).

[13] = INSTI-resistant, NL4-3 background
[14] = INSTI-resistant, primary patient-derived strain

SMILES: Cc1nc2ccccc2c(-c2ccc3c4c(ccnc24)CCO3)c1[C@H](OC(C)(C)C)C(=O)O [BI-224436, reference compound]
- EC50 ([1]; read-out: EC50 33913N (B)): 20 ± 9 nM
- EC50 ([1]; read-out: EC50 HXB2 (B)): 14 ± 7 nM
- EC50 ([1]; read-out: EC50 KER2008 (A)): 37 ± 12 nM
- EC50 ([1]; read-out: EC50 NL4-3 (B)): 100 ± 80 nM
- EC50 ([1]; read-out: EC50 NP1525 (CRF01_AE)): 61 ± 35 nM
- EC50 ([1]; read-out: EC50 NP1538 (B)): 66 ± 42 nM
- Fold change in EC50 relative to NL4-3, E92Q [2, 13]: 1
- Fold change in EC50 relative to NL4-3, G140S [2, 13]: 1
- Fold change in EC50 relative to NL4-3, G140S/Q148H [2, 13]: 1
- Fold change in EC50 relative to NL4-3, N155H [2, 13]: 1
- Fold change in EC50 relative to NL4-3, Q148H [2, 13]: 1
- Fold change in EC50 relative to NL4-3, Y143R [2, 13]: 1
- Fold change in EC50 relative to NL4-3, E92Q/N155H (pat.) [2, 14]: 1
- Fold change in EC50 relative to NL4-3, G140S/Q148H (pat.) [2, 14]: 1
- Fold change in EC50 relative to NL4-3, T97A/N155H (pat.) [2, 14]: 1
- Fold change in EC50 relative to NL4-3, NLAY351717 ([2]; NRTI-resistant clone): 1
- Fold change in EC50 relative to NL4-3, NLAY351753 ([2]; NRTI/NNRTI-resistant clone): 1
- Fold change in EC50 relative to NL4-3, K103N/Y181C ([2]; NRTI/NNRTIs group, NL4-3 background): 1
- Fold change in EC50 relative to NL4-3, ARP-4595 ([2]; PI-resistant virus): 0.4
- Fold change in EC50 relative to NL4-3, ARP-4596 ([2]; PI-resistant virus): 0.5
- Fold change in EC50 relative to NL4-3, ARP-11801 ([2]; PI-resistant virus): 1
- Fold change in EC50 relative to NL4-3, ARP-11803 ([2]; PI-resistant virus): 1
- Fold change in EC50 relative to NL4-3, ARP-11807 ([2]; PI-resistant virus): 1
- Fold change in EC50 relative to NL4-3, ARP-11808 ([2]; PI-resistant virus): 1
- Fold change in EC50 relative to parental NL4-3, AA ([3]; recombinant NL4-3, IN 124/125 AA): 1
- Fold change in EC50 relative to parental NL4-3, AM ([3]; recombinant NL4-3, IN 124/125 AM): 0.4
- Fold change in EC50 relative to parental NL4-3, AT ([3]; recombinant NL4-3, IN 124/125 AT): 1
- Fold change in EC50 relative to parental NL4-3, AV ([3]; recombinant NL4-3, IN 124/125 AV): 1
- Fold change in EC50 relative to parental NL4-3, GA ([3]; recombinant NL4-3, IN 124/125 GA): 1
- Fold change in EC50 relative to parental NL4-3, GT ([3]; recombinant NL4-3, IN 124/125 GT): 2
- Fold change in EC50 relative to parental NL4-3, NA ([3]; recombinant NL4-3, IN 124/125 NA): 1
- Fold change in EC50 relative to parental NL4-3, NT ([3]; recombinant NL4-3, IN 124/125 NT): 1
- Fold change in EC50 relative to parental NL4-3, NV ([3]; recombinant NL4-3, IN 124/125 NV): 1
- Fold change in EC50 relative to parental NL4-3, SA ([3]; recombinant NL4-3, IN 124/125 SA): 1
- Fold change in EC50 relative to parental NL4-3, ST ([3]; recombinant NL4-3, IN 124/125 ST): 1
- Fold change in EC50 relative to parental NL4-3, TA ([3]; recombinant NL4-3, IN 124/125 TA): 1
- Fold change in EC50 relative to parental NL4-3, TM ([3]; recombinant NL4-3, IN 124/125 TM): 0.4
- Fold change in EC50 relative to parental NL4-3, TV ([3]; recombinant NL4-3, IN 124/125 TV): 1
- EC50 fold change compared to wild type NL4-3, A128T [4]: 6
- EC50 fold change compared to wild type NL4-3, H171Q [4]: 4
- EC50 fold change compared to wild type NL4-3, N222K [4]: 2
- EC50 fold change compared to wild type NL4-3, T174I [4]: 706
- EC50 fold change compared to wild type NL4-3, Y99H [4]: 2
- IC50 [5]: 90 ± 19 nM
- CC50 [6]: > 200000 nM
- EC90 ([7]; Human immunodeficiency virus 1, NL43, multiple-round infection, from dose response curves, read-out: EC90 NL4-3): 77 ± 34 nM
- EC50 ([7]; Human immunodeficiency virus 1, NL43, multiple-round infection, mean ± SD, n > 5, read-out: EC50 NL4-3): 51 ± 17 nM
- Selectivity index CC50/EC50 NL4-3 [7]: >3,921
- EC50 [8]: 1400 ± 300 nM
- Fold change in EC50 relative to parental NL4-3, CAM2BBY (CRF02) ([9]; IN 124/125 AA): 2
- Fold change in EC50 relative to parental NL4-3, E0836M4 (D) ([9]; IN 124/125 AA): 1
- Fold change in EC50 relative to parental NL4-3, KER2008 (A) ([9]; IN 124/125 AA): 1
- Fold change in EC50 relative to parental NL4-3, NP1525 (CRF01) ([9]; IN 124/125 AA): 1
- Fold change in EC50 relative to parental NL4-3, NP1695 (CRF02) ([9]; IN 124/125 AA): 2
- Fold change in EC50 relative to parental NL4-3, TZA125 (C) ([9]; IN 124/125 AA): 0.5
- Fold change in EC50 relative to parental NL4-3, KSM4030 (A) ([9]; IN 124/125 GA): 1
- Fold change in EC50 relative to parental NL4-3, vGA (C) ([9]; IN 124/125 GA): 2
- Fold change in EC50 relative to parental NL4-3, 99ET14 (C) ([9]; IN 124/125 NA): 1
- Fold change in EC50 relative to parental NL4-3, NP1538 (B) ([9]; IN 124/125 NA): 1
- Fold change in EC50 relative to parental NL4-3, vNA_1 (B) ([9]; IN 124/125 NA): 2
- Fold change in EC50 relative to parental NL4-3, vNA_2 (CRF02) ([9]; IN 124/125 NA): 2
- Fold change in EC50 relative to parental NL4-3, vNV (B) ([9]; IN 124/125 NV): 1
- Fold change in EC50 relative to parental NL4-3, vSA_1 (B) ([9]; IN 124/125 SA): 3
- Fold change in EC50 relative to parental NL4-3, vSA_2 (CRF02) ([9]; IN 124/125 SA): 2
- Fold change in EC50 relative to parental NL4-3, vTA_1 (B) ([9]; IN 124/125 TA): 2
- Fold change in EC50 relative to parental NL4-3, vTA_2 (CRF02) ([9]; IN 124/125 TA): 2
- IC50 [10]: 73 ± 13 nM
- EC50 [11]: 23 ± 8.4 nM
- AC50 ([12]; concentration for 50% maximum activation of multimerization): 34 ± 11 nM
- IN multimerization Plateau ([12]; maximum multimerization reached versus baseline): 670 ± 210%
